Results as given in patent publication US6100291A, “Pyrrolidine-indole compounds having 5-HT6 affinity” (Allelix Biopharmaceuticals Inc., priority 1998, dated 2000).
pEC50, pKi: −log10 of the molar value. Like-named read-outs stand apart in the source and are kept apart here.

Experiments:
human 5-HT6 receptor [1] = biological target: T1, human 5-HT6 receptor (Homo sapiens, UniProt P50406); assay: Binding affinity for the 5-HT6 receptor (3H-LSD radioligand binding, membranes of cells expressing the 5-HT6 receptor); conditions: 60 minute incubation at 37° C.
T1 construct: expressed in transfected cells
Method: All of the compounds of the invention were evaluated using cell types receptive specifically to the 5-HT6 receptor (for cloning and characterization of the human 5-HT6 receptor see Kohen, et al. J. Neurochemistry, 66, 1996: 47-56). […] After a 60 minute incubation at 37° C., the incubation was terminated by vacuum filtration. The filters were washed with buffer and the filters were counted for radioactivity using liquid scintillation spectrometry. The affinity of the test compound for the 5-HT6 receptor was determined by computer-assisted analysis of the data and determining the amount of the compound necessary to inhibit 50% of the binding of the radioligand to the receptor. Concentrations ranging from 10^-11 M to 10^-5 M of the test compound were evaluated.

human 5-HT6 receptor [2] = biological target: T1, human 5-HT6 receptor; assay: Effect on the cAMP response of human 5-HT6 receptors in stably transfected HEK293 cells (EIA); assay type: cell-based
Method: The antagonist (or agonist) property of compounds for human 5-HT6 receptors was determined by testing their effect on cAMP accumulation in stably transfected HEK293 cells.
Binding of an agonist to the human 5-HT6 receptor will lead to a increase in adenyl cyclase activity. A compound which is an agonist will show an increase in cAMP production and a compound which is an antagonist will block the agonist effect.
Cell Assay: Human 5-HT6 receptors were cloned and stably expressed in HEK293 cells. These cells were plated in 6 well plates in DMEM/F12 media with 10% fetal calf serum (FCS) and 500 μg/mL G418 and incubated at 37° C. in a CO2 incubator. The cells were allowed to grow to about 70% confluence before initiation of the experiment.
On the day of the experiment, the culture media was removed, and the cells were washed once with serum free medium (SFM). Two mL of SFM+IBMX media was added and incubated at 37° C. for 10 min. The media were removed and fresh SFM+IBMX media containing various compounds, and 1 μM serotonin (as antagonist) were added to the appropriate wells and incubated for 30 min. Following incubation, the media were removed and the cells were washed once with 1 mL of PBS (phosphate buffered saline). Each well was treated with 1 mL cold 95% ethanol and 5 mM EDTA (2:1) at 4° C. for 1 hour. The cells were then scraped and transferred into Eppendorf tubes. The tubes were centrifuged for 5 min at 4° C., and the supernatants were stored at 4° C. until assayed.
cAMP Measurement: cAMP content was determined by EIA (enzyme-immunoassay) using the Amersham Biotrak cAMP EIA kit (Amersham RPN 225). The procedure used is as described for the kit. Briefly, cAMP is determined by the competition between unlabeled cAMP and a fixed quantity of peroxidase-labelled cAMP for the binding sites on anti-cAMP antibody. The antibody is immobilized onto polystyrene microtitre wells precoated with a second antibody. […] The reaction is stopped by the addition of 100 μL 1.0 M sulphuric acid and the resultant color read by a microtitre plate spectrophotometer at 450 nM within 30 minutes. […]

human 5-HT7 receptor = human 5-HT7 receptor (Homo sapiens, UniProt P34969); assay: Binding selectivity for 5-HT6 relative to the human 5-HT7 receptor; conditions: 5-HT6 vs human 5-HT7 receptor
human 5-HT2C receptor = biological target: T2, human 5-HT2C receptor (Homo sapiens, UniProt P28335); assay: Binding selectivity for 5-HT6 relative to the human 5-HT2C receptor; conditions: 5-HT6 vs human 5-HT2C receptor
T2 sequence (P28335 33-458): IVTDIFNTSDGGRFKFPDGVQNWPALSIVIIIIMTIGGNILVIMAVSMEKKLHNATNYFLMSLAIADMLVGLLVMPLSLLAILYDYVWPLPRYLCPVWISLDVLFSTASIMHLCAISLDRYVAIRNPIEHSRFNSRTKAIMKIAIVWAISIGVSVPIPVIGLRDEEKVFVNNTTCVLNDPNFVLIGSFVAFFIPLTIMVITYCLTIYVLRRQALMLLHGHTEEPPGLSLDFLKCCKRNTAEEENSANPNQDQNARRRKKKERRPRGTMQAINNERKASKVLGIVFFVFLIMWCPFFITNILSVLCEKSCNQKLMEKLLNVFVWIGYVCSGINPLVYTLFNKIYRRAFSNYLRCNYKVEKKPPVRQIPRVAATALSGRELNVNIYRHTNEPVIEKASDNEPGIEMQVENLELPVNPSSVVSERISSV

T1 sequence (P50406 whole entry): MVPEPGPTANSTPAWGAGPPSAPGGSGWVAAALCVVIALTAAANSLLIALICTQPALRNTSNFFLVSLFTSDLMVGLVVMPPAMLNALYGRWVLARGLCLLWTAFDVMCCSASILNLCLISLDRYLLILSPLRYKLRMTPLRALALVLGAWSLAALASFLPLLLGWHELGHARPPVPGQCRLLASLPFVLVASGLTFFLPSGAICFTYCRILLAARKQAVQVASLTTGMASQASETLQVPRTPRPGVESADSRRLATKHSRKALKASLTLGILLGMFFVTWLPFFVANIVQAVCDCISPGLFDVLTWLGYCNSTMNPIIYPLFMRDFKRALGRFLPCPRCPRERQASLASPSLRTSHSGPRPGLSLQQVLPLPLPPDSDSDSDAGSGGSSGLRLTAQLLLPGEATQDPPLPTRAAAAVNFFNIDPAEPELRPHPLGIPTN
Chain of human 5-HT7 receptor (P34969 whole entry): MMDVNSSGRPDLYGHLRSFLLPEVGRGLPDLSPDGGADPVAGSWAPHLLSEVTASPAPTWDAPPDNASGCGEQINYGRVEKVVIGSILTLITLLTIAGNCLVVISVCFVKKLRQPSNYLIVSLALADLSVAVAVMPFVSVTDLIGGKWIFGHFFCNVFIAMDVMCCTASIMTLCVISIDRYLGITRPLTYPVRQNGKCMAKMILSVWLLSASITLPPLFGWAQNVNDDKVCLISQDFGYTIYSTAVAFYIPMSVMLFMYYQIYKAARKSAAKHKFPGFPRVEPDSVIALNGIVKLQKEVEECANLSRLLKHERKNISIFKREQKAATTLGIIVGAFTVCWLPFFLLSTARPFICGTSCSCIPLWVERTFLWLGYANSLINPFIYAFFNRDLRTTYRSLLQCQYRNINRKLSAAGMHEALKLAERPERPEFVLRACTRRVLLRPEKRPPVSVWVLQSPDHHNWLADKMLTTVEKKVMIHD

Row | Structure (SMILES) | pKi (human 5-HT6 receptor [1]; Ki) | further results
1 | CN1CCC[C@@H]1Cc1cn(C(=O)c2ccccc2)c2ccc(Br)cc12 [Example 7d, (R)-1-Benzoyl-5-bromo-3-(1-methyl-2-pyrrolidinylmethyl) indole] | ≥ 9.00 | 
2 | CN1CCC[C@@H]1Cc1cn(S(=O)(=O)c2ccccc2)c2ccc(O)cc12 [Example 10, (R)-1-Phenylsulfonyl-5-hydroxy-3-(1-methyl-2-pyrrolidinylmethyl)indole] | ≥ 8.00 | 
3 | CN1CCC[C@@H]1Cc1cn(C(=O)c2ccccc2)c2ccccc12 [Example 5g, (R)-1-Benzoyl-3-(1-methyl-2-pyrrolidinylmethyl)indole] | ≥ 8.00 | 
4 | CN1CCC[C@@H]1Cc1cn(S(=O)(=O)c2ccccc2)c2ccc(OCc3ccccc3)cc12 [Example 7e, (R)-5-Benzyloxyindole-3-(1-methyl-2-pyrrolidinylmethyl)-1-phenylsulfonylindole] |  | pKi (human 5-HT6 receptor [1]; read-out: Ki): ≥ 9.00
5 | CN1CCC[C@@H]1Cc1cn(S(=O)(=O)c2ccccc2)c2ccc(Cl)cc12 [Example 5d, (R)-5-Chloro-3-(1-methyl-2-pyrrolidinylmethyl)-1-phenylsulfonylindole] | ≥ 9.00 | pEC50 (human 5-HT6 receptor [2]): 8.08
6 | CN1CCC[C@@H]1Cc1cn(C(=O)c2ccccc2Cl)c2ccc(OC3CCCCC3)cc12 [Example 5j, (R)-1-(2-Chlorobenzoyl)-5-cyclohexyloxy-3-(1-methyl-2-pyrrolidinylmethyl)indole] |  | pEC50 (human 5-HT6 receptor [2]): 7.19
7 | CN1CCC[C@@H]1Cc1cn(C(=O)c2ccccc2)c2ccc(Cl)cc12 [Example 5p, (R)-1-Benzoyl-5-chloro-3-(1-methyl-2-pyrrolidinylmethyl)indole] | ≥ 9.00 | 
8 | CN1CCC[C@@H]1Cc1cn(S(=O)(=O)c2ccccc2)c2ccc(OC3CCCCC3)cc12 [Example 4, (R)-5-Cyclohexyloxy-3-(1-methyl-2-pyrrolidinylmethyl)-1-phenylsulfonylindole] | ≥ 9.00 | 
9 | CN1CCC[C@@H]1Cc1cn(C(=O)c2ccccc2)c2ccc(OC3CCCCC3)cc12 [Example 7a, (R)-5-Cyclohexyloxy-3-(1-methyl-2-pyrrolidinylmethyl)-1-benzoylindole] | ≥ 8.00 | 
10 | CN1CCC[C@@H]1Cc1cn(C(=O)c2c(Cl)cccc2Cl)c2ccc(OC3CCCCC3)cc12 [Example 5n, (R)-5-Cyclohexyloxy-1-(2,6-dichlorobenzoyl)-3-(1-methyl-2-pyrrolidinylmethyl)indole] |  | greater affinity for human 5-HT6 receptor relative to human 5-HT7 (human 5-HT7 receptor): ≥ 36 fold; greater affinity for human 5-HT6 receptor relative to human 5-HT2C (human 5-HT2C receptor): ≥ 36 fold
11 | Cc1ccc(S(=O)(=O)n2cc(C[C@H]3CCCN3C)c3cc(F)ccc32)cc1 [Example 7c, (R)-5-Fluoro-1-(4-methylphenylsulphonyl)-3-(1-methyl-2-pyrrolidinylmethyl)-indole] | ≥ 9.00 | 
12 | CN1CCC[C@@H]1Cc1cn(C(=O)c2ccc(F)cc2)c2ccc(Cl)cc12 [Example 5r, (R)-5-Chloro-1-(4-fluorobenzoyl)-3-(1-methyl-2-pyrrolidinylmethyl)indole] |  | pEC50 (human 5-HT6 receptor [2]): 8.22; greater affinity for human 5-HT6 receptor relative to human 5-HT7 (human 5-HT7 receptor): ≥ 36 fold; greater affinity for human 5-HT6 receptor relative to human 5-HT2C (human 5-HT2C receptor): ≥ 36 fold
